Assay results published in patent US8518884B2, “Methods for treating atrial or ventricular arrhythmias by administering a G-protein alpha inhibitor” (Northwestern University, priority 2008, dated 2013).
“Also recorded” adds a separate entry of the source. Ends that are not written are not given here.

Key:
[1] = tested on: M2R-stimulated Gi activation; assay: Cholinergic (CCh) modulation of Ca2+ transients in isolated canine left atrial myocytes; format: cell-based
Text: (§1) Cardiac myocytes were isolated from the canine left atrium, loaded with fluo-4 (fluorescent Ca^2+ indicator), and electrically field-stimulated. […] The effects can be summarized quantitatively (SEE FIG. 12B).

[2] = tested on: canine subject atrial cardiomyocytes; assay: Toxicity by rapid automated tetrazolium dye based assay (MTT); format: cell-based; settings: 5 μM peptide
[3] = tested on: Gαi; assay: cp-Gα peptide delivery to the PLA with electroporation/sonoporation: ERPs and AF inducibility with vagal stimulation; format: in vivo, canine
Method: High-density epicardial mapping was performed in the PVs (2×2 electrodes), the PLA (7×3 electrodes) and the left atrial appendage (LAA) (7×3 electrodes) of canine subjects. Effective refractory periods (ERPs) were obtained at baseline and in response left cervical vagal stimulation (VS) (20 Hz). Cp-Gαi2 peptide (200-330 nM) was then applied topically to the epicardial aspect of the PLA in a canine subgroup. Cp-Gαi3 peptide (200-330 nM) was then applied topically to the epicardial aspect of the PLA of a second subgroup. Electroporation was performed after the application of peptide to enhance intracellular delivery of the peptide. ERPs were then re-measured in the presence and absence of VS.
In canine subjects, high-density epicardial mapping was performed in the PVs (2×2 electrodes), the PLA (7×3 electrodes) and the left atrial appendage (LAA) (7×3 electrodes). Effective refractory periods (ERPs) were obtained at baseline and in response left cervical vagal stimulation (VS) (20 Hz). FLAG-tcp-Gα peptides (200 nM-3 μM of cp-Gαi1/2 (N=8 canine subjects), cp-Gαi3 (N=4 canine subjects), or random-sequence cp-GαoR peptide (N=3 canine subjects) were injected into the PLA epicardium of the canine subjects followed by either sonoporation or electroporation. In a subgroup of the canine subjects, sonoporation or electroporation alone was performed without introduction of cp-Gαi peptide. ERPs were then re-measured in the presence and absence of VS. In a separate set of control animals, ERPs were measured before and after the administration of systemic autonomic blockade with propranolol (0.2 mg/kg)+atropine (0.04 mg/kg).

[4] = tested on: left atrium; assay: Functional studies in pacing-induced CHF and control canine subjects: left atrial ERPs under autonomic manipulation; format: in vivo; settings: both groups (CHF and control)
Method: Canine subjects were divided into three groups. In group 1, CHF was induced by rapid ventricular pacing for 4 weeks (i.e. when the animals began to develop clinical heart failure. In group 2, pacing was performed for only 3 weeks. Group three were control canine subjects not subjected to rapid ventricular pacing. At the end of follow up period, high-density epicardial mapping was performed in the PVs, the PLA and the LAA. ERPs were obtained at multiple sites under the following conditions: a) baseline (BSL), b) left cervical vagal stimulation at 20 Hz (VS), c) beta-stimulation with isoproterenol (ISO), d) beta-blockade with propranolol (PROP) and e) beta-blockade+vagal stimulation (P+VS). VS caused significant mean ERP shortening in all three groups. […] PROP increased the VS effect on ERP in normal controls, but produced an attenuation of this effect in the CHF group (SEE FIG. 37). In this CHF model, after 4 weeks of pacing, an increased vagal effect on atrial refractoriness, an increased cumulative sympathetic effect, and a change in the sympatho-vagal interactions of the left atrium were observed. After 3 weeks of pacing, there is pronounced autonomic remodeling, with evidence of P as well S nerve upregulation in the PVs and left atrium. Both P and S upregulation are more pronounced in the PLA (and to a lesser extent in the PVs) than in the rest of the left atrium. While vagal responsiveness in the left atrium is unaltered at 3 weeks of pacing, it increases after 4 weeks of pacing. […] The autonomic remodeling becomes more pronounced with increasing duration of pacing. […] The increase in β1 binding is consistent with the increase in sympathetic innervation. […] The P upregulation noted in the left atrium in CHF is a compensatory response to S upregulation that occurs in response to CHF. […] However, since normal atria are more densely innervated with vagal fibers (than the ventricle) and also contain a significant amount of IKAch, the compensatory response is likely to be more vigorous in the atrium. The compensatory increase in vagal innervations, and resulting increase in IKAch, may contribute to increased AF substrate.

[5] = tested on: βAR-stimulated Gs activation; assay: β-adrenergic (ISO) modulation of Ca2+ transients in isolated canine left atrial myocytes; format: cell-based; settings: 1 μM ISO (βAR saturating); within 20-30 seconds
Text: as §1

[6] = tested on: Gαo1; assay: Gαo1 minigene in the PLA: vagal and CCh induced ERP shortening; format: in vivo, dog; settings: 10 mg minigene in PLA; day 3; compared to GαR dogs
Method: This Example describes the use of a Gαo1 inhibitor to treat arrhythmia is a subject. In one animal, the following was performed: • Day 1: Open-chest mapping was performed via a left lateral thoracotomy. 10 mg of minigene expressing Gαo1 peptide was then injected in the PLA, followed by electroporation. • Day 3: A left lateral thoracotomy was performed again. The left vagus nerve was isolated. ERPs were measured in the PLA, PV and LAA in the absence and presence of vagal stimulation. Data from the above animal was compared with other dogs that received other minigenes (i.e. Gαi2, Gαi2+Gαo1 and GαR (see Aistrup et al, Heart Rhythm 2011)

[7] = tested on: posterior left atrium (PLA); assay: Topical tropicaimide on the PLA: vagal stimulation (VS)-induced ERP shortening and AF inducibility; format: in vivo, canine
Method: P nerve fibers, and related muscarinic receptors, are preferentially located in the PLA and selective cholinergic blockade in the PLA can be successfully performed to alter vagal AF substrate. PLA, PVs and left atrial appendage (LAA) in canine subjects were immunostained for S nerves (dopamine beta-hydroxylase), P nerves (acetylcholine esterase), and M2 receptors. Epicardial electrophysiologic mapping was performed in 7 additional canine subjects. The PLA was the most richly innervated with nerve bundles containing P and S fibers (PV=0.9±1, PLA=3.2±2.5, LAA=0.17±0.3/cm^2; p<0.001); nerve bundles were located in fibrofatty tissue as well as in surrounding myocardium. P predominated over S fibers within bundles (P/S: PV=4.4, PLA=7.2, LAA=5.8). M2 distribution was also most pronounced in the PLA (M2 stained cells/cm^2: PLA=17.8±8.3, PV=14.3±7.3, LAA=14.5±8, p=0.012). A particularly high concentration of P fibers was found in the ligament of Marshall (in the PLA). The ligament of Marshall could be traced back to a major branch of the left cervical vagus nerve. The nerve in turn innervates the PVs and the rest of the PLA. The PLA surface is stained for acetylcholinesterase. […] A small nerve branch (N) originating in the LOM is seen to innervate the LSPV. […] Cholinergic nerves from the PLA fat pad (PFP) can be seen to innervate the LIPV. […] 1% tropicaimide was then applied topically to the PLA.
Using the canine model outlined below, 1% tropicaimide (a cholinergic blocker) was applied topically to the epicardial aspect of the PLA in canine subjects. Effective refractory periods were measured at multiple sites in the PLA a) at baseline, b) after left vagal stimulation, c) after tropicaimide application to the PLA and d) in the presence of vagal stimulation after tropicaimide application. […] The robust autonomic profile of the PLA and its role in AF (both in normal as well as diseased hearts), thereby making it an attractive target for autonomic manipulation by regional delivery of Gα C-terminal peptides. […]

[8] = 200 nM-3 μM injected into PLA + sono/electroporation
[9] = during VS, after peptide delivery into PLA

C[N+](C)(C)CCOC(N)=O [CCh, carbachol, reference compound]
effect on cellular Ca2+ transients ([1]; 10 μM CCh (M2R saturating), field-stimulated myocytes): nearly eliminated

cp-Gαi peptide: cell-penetrating Gαi C-terminal peptide (cp-Gαi1/2 or cp-Gαi3), isoform not specified at the place (IKNNLKDCGLF; also: cell-penetrating sequence attached, not shown)
enhancement of cell viability [2]: ~8%
VS-induced ERP shortening in the LAA [3, 8]: Elimination
VS-induced ERP shortening in the PLA [3, 8]: eliminated
ERP heterogeneity (coefficient of variation of all ERPs in PLA) ([3]; after peptide application): no change
AF inducibility in the presence of VS ([3]; after peptide delivery to PLA): significantly decreased
reduction in AF inducibility during VS ([3]; compared to vagal stimulation at baseline): 69%
AF episodes >5 seconds in duration induced [3, 9]: 10 episodes
AF inducibility index [3, 9]: 0.05
atrial or ventricular arrhythmias induced by peptide injection ([3]; with or without sono/electroporation): No atrial or ventricular arrhythmias were induced

CC(C)NCC(O)c1ccc(O)c(O)c1 (stereo not shown) [ISO, isoproterenol]
effect on mean ERP compared to PROP [4]: significantly shortened
effect on Ca2+ transients [5]: appreciably augmented

IANNLRGCGLY [Gαo1 minigene]
CCh induced ERP shortening [6]: significant reduction
vagal induced ERP shortening [6]: significant reduction

CCN(Cc1ccncc1)C(=O)C(CO)c1ccccc1 (stereo not shown) [tropicaimide]
VS-induced ERP shortening ([7]; 1% tropicaimide topically to PLA, PLA, PV and LAA): significantly attenuated; also recorded: either entirely eliminated or at least significantly attenuated
decrease in AF inducibility ([7]; 1% tropicaimide topically to PLA, vagal stimulation): 92%
AF induction with extrastimulus testing ([7]; after 1% tropicaimide to PLA, presence or absence of vagal stimulation): could not induced

cp-Gαi2: chimeric peptide: cell-penetrating poly-arginine N-terminal sequence and C-terminal last 11 residues of Gαi (IKNNLKDCGLF; also: cell-penetrating poly-arginine N-terminal sequence, length not given here)
attenuation of CCh effect on Ca2+ transients ([1]; 0.1-3 μM peptide superfusion 10-20 min, CCh): significantly attenuate
VS induced ERP shortening ([3]; 200-330 nM topical to PLA + electroporation, PLA, PV and LAA): significantly attenuated
